Data as given in patent US9856304B2, “Peptide and application thereof” (Saitama Medical University, priority 2013, dated 2018).

Legend:
[1] = tested on: human iPS cells (200-9 cells, TIG3/KOSM cells, 253G1 cells); assay: Differentiation induction of human iPS cells into pancreatic hormone-producing cells (1), immunostaining; format: cell-based; conditions: 3 nM betagenin in step (D2), vs DMSO control, FIG. 3
Description: As human iPS cells, used were 253G1 cells purchased from the cell bank at RIKEN, TIG3/KOSM cells provided by Dr. Mitani at Saitama Medical University, 200-9 cells, a clone in which a reporter gene is introduced into TIG3/KOSM cells. TIG3/KOSM cells were established at The National Institute of Advanced Industrial Science and Technology by introducing 4 factors (the OCT gene, the KLF gene, the SOX gene, the MYC gene) into TIG-3 cells using Sendai virus (Nishimura, K. et al., J. Biol. Chem., 286, pp. 4760-4771 (2011)).
These cells were cultured/maintained in an ES cell culture medium (DMEM/ham F12, 20% KSR, nonessential amino acid, 2 mM L-glutamine, 0.1 mM 2-mercaptoethanol, 5.2 mM NaOH) with added 4 ng/mL FGF-2 (Global Stem) and penicillin/streptomycin (Nacalai Tesque, Inc.) along with SNL76/7 cells (DS Pharma Biomedical) treated with mitomycin-C. CTK (0.25% trypsin, 1 mg/mL collagenase IV, 20% KSR, 1 mM CaCl2 in PBS) was used for cell detachment, and diluted at a ratio of 1:3 to 1:4 to perform passage culture.
Cells were detached with trypsin-EDTA 3 days before the start of differentiation induction, and plated at a cell density of 6.3×10^4 cells/cm2, and cultured for 1 day in an ES cell culture medium with added 10 μM Y-27632 (Wako), 4 ng/mL FGF-2 and penicillin/streptomycin along with STO cells treated with mitomycin-C. Subsequently, they were further cultured for 2 days in an ES cell culture medium with added 4 ng/mL FGF-2 and penicillin/streptomycin.
On the first day of the start of differentiation induction, the culture medium was replaced with a RPMI1640 culture medium (Nacalai Tesque, Inc.) with added 2% (v/v) FBS, 100 ng/mL activin A (SBI) and 3 μM CHIR99021 (Axon Medchem), and cultured for 1 day (Step (A2)).
Subsequently, the culture medium was replaced with a RPMI1640 culture medium with added 2% (v/v) FBS and 100 ng/mL activin A, and cultured for 2 days (Step (B2)). […]
Then, the proportion (%) of C-peptide positive cells or insulin positive cells was determined using an image analyzer CellInsight (Thermo Fisher Scientific).

[2] = tested on: MIN6 cells (pancreatic β cell line); assay: EdU cell proliferation assay, growth promotion of pancreatic β cells (3), versus Peptides A, B, C; format: cell-based; conditions: betagenin 1 nM compared with Peptides A, C at 3 nM or 5 nM, FIG. 5
Procedure: MIN6 cells provided by Dr. Miyazaki at Osaka University were used as a pancreatic β cell line. MIN6 cells were maintained in a DMEM culture medium with added 15% (v/v) of FBS.
A DMSO solution was prepared so that the concentration of chemically synthesized betagenin was 97% of purity, as a pancreatic hormone-producing cell growth-promoting agent.
Further, for comparison, Peptides A, B, C consisting of the amino acid sequences set forth in SEQ ID Nos: 4 to 6, respectively, were prepared by chemical synthesis.
First, MIN6 cells were plated on a collagen-coated 8-well slide chamber (BD Falcon, Product Number 354630) at a cell density of 1×10^4 cells/well for confirming the growth promotion of pancreas β cells. After 24 hours, the culture medium was replaced with a DMEM culture medium with added 0.5% (v/v) of FBS, and then serum starvation was performed for 72 hours. Note that the culture medium was replaced with a fresh culture medium 48 hours after the start of serum starvation. […]
The incorporated EdU was visualized as red fluorescence using Alexa Flour™ 594, and observed with a fluorescence microscope (Carl Zeiss). […] Note that a red fluorescence part representing a region where EdU was taken up will be confirmed as a dark black part due to the operations of black and white processing and black and white inversion.

## betagenin: chemically synthesized peptide of SEQ ID NO: 1, fragment of human TM4SF20 from Position 170 to Position 229 (WRASSFHFDSEENKHRLIHFSVFLGLLLVGILEVLFGLSQIVIGFLGCLCGVSKRRSQIV; Peptide Sequence betagenin; listed as Homo sapiens)
[1]; 200-9 cells
  proportion of C-peptide positive cells or insulin positive cells: increased
[1]; 253G1 cells
  proportion of C-peptide positive cells or insulin positive cells: increased
[1]; TIG3/KOSM cells
  proportion of C-peptide positive cells or insulin positive cells: increased
[2]
  EdU uptake in fluorescence microscope images (dark black parts): significantly darker black parts
